Read-outs that look alike come from different tables or passages of the source.
Key:
[1] = for improvement of AoPmax: NS
Experimental: Anesthetized rats were subjected to echocardiography periodically during the treatment regimens using a GE VingMed System Five Echocardiogram System (12, 13, 17, and 18). Heart rate and rectal temperature (35.9-37.5° C.) were monitored constantly during the imaging. Animals were placed on a warming platform with paws taped down to limit any motion during imaging, and a sterile eye lubricant was applied to prevent eye drying during the procedure. Hair over the thorax was removed first with an electric clipper, and then with a depilatory cream (<2 min exposure). Animals were imaged (10 MHz probe) for about 20 minutes at an image depth of 3 cm. This imaging system allows for both cardiac structure and function evaluation in rats. Systolic function, measured as % fractional shortening (% FS) using M-mode imaging, and left ventricular ejection fraction (LVEF), calculated from M-mode measurements, were assessed. Key anatomical parameters (IVSd & s=inter-ventricular septum diameter in diastole and systole; and LVPWd & s=LV posterior wall thickness in diastole or systole) were measured to assess the presence of dilated or hypertrophic cardiomyopathy. Measurements of the aortic and pulmonary artery diameters were used to calculate stroke volumes. Aortic pressure max (AoPmax) was assessed; and spectral Doppler velocities were measured for the pulmonic and aortic outflows to calculate cardiac output (CO), and for the mitral valve inflows to assess ventricular diastolic function (mitral valve E and A wave velocities and the E/A ratio were obtained). After echocardiography, animals were placed in room air until awake, and observed until fully recovered.
Rats treated with erlotinib (starting 10 mg/kg/day, oral) and/or Emend (aprepitant, starting 2 mg/kg/day, oral) received echocardiography at the indicated intervals (FIGS. 5A-5C).
Table 3 legend: Interventricular septum dimension in diastole (IVSd) and systole (IVSs); and LV posterior wall thickness in diastole (LVPWd) and systole (LVPWs). Rats treated with erlotinib (starting 10 mg/kg/day, oral) and/or Emend (aprepitant, starting 2 mg/kg/day, oral) received echocardiography at the indicated intervals. Values (% change) for erlotinib±Emend rats were compared to time-matched controls, and are means±SEM of 5-7 rats per group.

[2] = Plasma substance P (SP) by ELISA; type: in vivo, Sprague-Dawley rats; conditions: for increase in circulating SP vs time-matched control: erlotinib
Experimental: Experiments on animals were conducted in accordance with the principles given in the US Department of Health and Human Services Guide for the Care and Use of Laboratory Animals and were approved by The George Washington University Institutional Animal Care and Use Committee. Male Sprague-Dawley rats (125-150 g) were purchased from Hilltop Lab Animals, Inc. (Scottdale, Pa.). After 1 week of quarantine, all age-matched rats were placed on an ad libitum Mg normal diet (25 mmole magnesium oxide/kg food regarded as 100% recommended daily allowance for rodents) obtained from Harlan-Teklad (Madison, Wis.) containing extracted casein as the diet base supplemented with essential vitamins and nutrients; or the same diet supplemented with erlotinib (OSI Pharmaceuticals, LLC, Northbrook, Ill. 60062, USA) to obtain a starting dose of 10 mg/kg/day, Emend® (as aprepitant, Merck & Co., INC. USA) to obtain a starting dose of 2 mg/kg/day, or both agents at these doses. Individually-housed rats were weighed and food consumption recorded daily to obtain actual drug dosage: time-range average erlotinib dose over 9 weeks was 7.07 mg/kg/day, and time-range average Emend dose over 9 weeks was 1.41 mg/kg/day. Rats had free access to distilled-deionized water, and were on a 12 h light/dark cycle for up to 9 weeks.
(§1) At periodic intervals, blood was collected (˜0.5 ml) aseptically from the tail of anaesthetized rats (2% isoflurane, EZ Anesthesia Chamber with nose cone)(13, 14) in sterile microtainer plasma separator tubes containing heparin and the protease inhibitor, aprotinin (Sigma Chemicals, St. Louis Mo.) to yield final blood concentrations of 10.74 units/ml and 0.016 units/ml, respectively. For subsequent samplings, the scab was carefully removed, and the process was repeated. Plasma was obtained after centrifugation (12,000 rpm, 2 min, RT, IDEXX StatSpin VT, Iris International, Inc., Westwood, Mass.). Tail bleed samples were used for assessment of plasma Mg, and substance P levels. Sacrifice blood samples (˜8 ml collected in heparin plus aprotinin containing BD vacutainer SST tubes) were taken from anaesthetized, heparinized (0.3-0.4 ml 358 units/ml heparin in 0.9% NaCl, i.p.) rats from either the vena cava or by cardiac puncture, and were centrifuged (3,500 rpm, 10 min, RT). In addition to the above plasma parameters, sacrifice plasma was also assayed for 8-isoprostane levels, and the whole blood samples were processed for neutrophil isolation and assessment of superoxide anion production.

neutrophils = system: neutrophils
Experimental: as §1
At sacrifice, whole blood (3 ml) samples were obtained; neutrophils were isolated by a step-gradient centrifugation method (13,−16). Superoxide anion production from neutrophils (0.5-0.75×10^6/ml) with (stimulated) or without (basal) PMA (phorbol myristate acetate, 100 ng/ml) was assayed in a phosphate buffer (pH 7.6) containing 5 mM glucose, 1 mM CaCl2, 1 mM MgCl2, and 75 μM cytochrome c±50 μg SOD. Superoxide generation was estimated as SOD-inhibitable reduction of cytochrome c using the extinction coefficient: E550=2.1×10^4M^−1cm^−1.
Hypomagnesemia alone in rodents can promote neutrophil free radical generating activity (Mak et al., Exp. & Clin. Cardiol. 2011, 16(4):121-124; Mak et al., Magnesium Res 2003, 16(2):91-97). In the present study, blood was sampled from rats treated with erlotinib (starting 10 mg/kg/day, oral) and/or Emend (aprepitant, starting 2 mg/kg/day, oral) at 9 weeks of exposure. Circulating neutrophil basal superoxide generating activity was determined as SOD-inhibitable reduction of cytochrome c (FIG. 3A). Plasma 8-isoprostane was assessed by a colorimetric ELISA kit (FIG. 3B). Values for erlotinib±Emend rats were compared to time-matched controls, and are means±SEM of 4-6 rats per group. ** p<0.01 versus control; ++p<0.01 versus erlotinib alone. […] Enhanced systemic oxidative stress, as represented by increased total plasma 8-isoprostane content (FIG. 3B), was prominent by 9 weeks (210% increase, p<0.01).

[3] = Experimental: as §1, with “In addition to the above plasma parameters, sacrifice plasma was also assayed for 8-isoprostane levels, and the whole blood samples were processed for neutrophil isolation and assessment of superoxide anion production.” left out
Hypomagnesemia alone in rodents can promote neutrophil free radical generating activity (Mak et al., Exp. & Clin. Cardiol. 2011, 16(4):121-124; Mak et al., Magnesium Res 2003, 16(2):91-97). […] Circulating neutrophil basal superoxide generating activity was determined as SOD-inhibitable reduction of cytochrome c (FIG. 3A). Plasma 8-isoprostane was assessed by a colorimetric ELISA kit (FIG. 3B). […]

[4] = 7 weeks, Emend co-treatment of erlotinib-exposed rats
[5] = 7 weeks, Emend co-treatment, p<0.05 vs erlotinib alone
[6] = 9 weeks, Emend co-treatment, p<0.02
[7] = 9 weeks, Emend co-treatment with erlotinib
[8] = male, Sprague-Dawley, rat, in vivo
[9] = male, Sprague-Dawley, rat, in vivo, 7 weeks
[10] = male, Sprague-Dawley, rat, in vivo, 9 weeks

Compound: C[C@@H](O[C@H]1OCCN(Cc2n[nH]c(=O)[nH]2)[C@H]1c1ccc(F)cc1)c1cc(C(F)(F)F)cc(C(F)(F)F)c1 [Emend, aprepitant]
- improvement of LV % FS compared to erlotinib alone ([1]; 7 weeks, Emend co-treatment): 65.1%
- improvement of LVPWs ([1]; 7 weeks, Emend co-treatment): 53.4%
- protection against erlotinib-induced decline in cardiac output ([1]; 7 weeks, Emend co-treatment): 64.9%
- improvement of IVSd [1, 4]: 48.2%
- improvement of LVEF compared to erlotinib alone [1, 4]: 71.3%
- improvement of AoPmax ([1]; 7 weeks, Emend co-treatment): 86%
- improvement of IVSs [1, 5]: 76%
- improvement of LVPWd [1, 5]: 59.1%
- improvement of IVSd ([1]; 9 weeks, Emend co-treatment): 42.8%
- improvement of IVSs ([1]; 9 weeks, Emend co-treatment): 62%
- improvement of LVPWd ([1]; 9 weeks, Emend co-treatment): 49.8%
- improvement of LVPWs ([1]; 9 weeks, Emend co-treatment): 58.2%
- improvement of AoPmax ([1]; 9 weeks, Emend co-treatment): 64%
- improvement of LV % FS compared to erlotinib alone [1, 6]: 86.4%
- improvement of LVEF compared to erlotinib alone [1, 6]: 87.2%
- protection against erlotinib-induced decline in cardiac output ([1]; 9 weeks, Emend co-treatment, p<0.02 vs ERL alone): 75.4%
- improvement of mitral valve E/A ratio compared to erlotinib alone ([1]; 9 weeks, Emend co-treatment, p<0.05): 84.6%
- impact on LV systolic, diastolic, hemodynamic and anatomical parameters compared to time-paired controls ([1]; rat, in vivo): did not have any significant impact
- effect on erlotinib-induced increases in SP ([2]; Emend co-treatment with erlotinib): almost completely blocked
- effect on erlotinib-caused increase in basal superoxide generating activity (neutrophils; [7]): completely prevented
- effect on erlotinib-caused increase in stimulated superoxide generating activity (neutrophils; [7]): completely prevented
- effect on neutrophil superoxide activity (neutrophils; rat, in vivo): no effects
- effect on elevation of total plasma isoprostane caused by erlotinib [3, 7]: completely blocked

Compound: C#Cc1cccc(Nc2ncnc3cc(OCCOC)c(OCCOC)cc23)c1 [Erlotinib, erlotinib]
- decline in IVSd [1, 8]: 12.8-16.8%
- decline in LVPWs [1, 8]: 9.3-21.9%
- fall in LVPWd [1, 8]: 15.6-20.9%
- lower IVSs [1, 8]: 11.4-17.5%
- LV % fractional shortening (LV % FS) lower than time-matched control [1, 9]: 17.2%
- LV ejection fraction (LVEF) lower than time-matched control [1, 9]: 10.4%
- aortic pressure maximum lower than control [1, 9]: 17.1%
- cardiac output reduced vs control [1, 9]: 18.8%
- LV % fractional shortening (LV % FS) lower than time-matched control [1, 10]: 17.7%
- LV ejection fraction (LVEF) lower than time-matched control [1, 10]: 11%
- aortic pressure maximum lower than control [1, 10]: 27.5%
- cardiac output reduced vs control [1, 10]: 20.3%
- mitral valve E/A ratio reduction [1, 10]: 17.5%
- changes in cardiac contractile function ([1]; rat, in vivo): No significant changes
- mitral valve E/A ratio ([1]; rat, in vivo): not significantly affected
- increase in circulating SP vs time-matched control ([2]; week 3, p<0.05): 27.3%
- increase in circulating SP vs time-matched control ([2]; week 5, NS): 12.3%
- increase in circulating SP vs time-matched control ([2]; week 9, p<0.01): 25.4%
- neutrophil basal superoxide generating activity, higher than control (neutrophils; rat, in vivo): 3 fold
- increase of total plasma 8-isoprostane content ([3]; rat, in vivo): 210%
